Data taken from US10266558B2, “Macroheterocyclic nucleoside derivatives and their analogues, production and use thereof” (ASAVI, LLC, priority 2016, dated 2019).

Tests used:
[1] = test system: lamivudine-entecavir resistant clone (L180M+M204V+S202G); conditions: resistant mutant (L180M+M204V+S202G); cited from earlier work
[2] = test system: HBV wild-type; conditions: cited from earlier work
[3] = Metabolic stability in human liver S9 fraction; format: in vitro ADME; conditions: pH 7.4
Procedure: The human liver S9 fraction metabolic stability in human liver microsomal fraction of Macroheterocyclic nucleoside derivative represented by formula 1 and 2 and Sovaldi. Stock solutions of test compounds and PSI-352707 (10 mM) were prepared in DMSO and stored at −20° C. 10-× standard solutions of PSI-352707 (10, 8, 5, 2 and 1 μM) were prepared by dilution stock solution with water-acetonitrile mixture (1/1, v/v). The reaction mixture was prepared in a total volume of 350.5 μL containing 0.1 M potassium phosphate buffer (pH 7.4), 1 mM NADPH, 7 mM G6P, 1.5 U/mL G6PDH, 3.3 mM MgCl2, 5 mM UDPGA, 122 μLdeionised water and 1 μM test compound. The reaction mixture was pre-incubated at 400 rpm, 37° C. The reaction was initiated by adding 1 mg/mL human liver S9 fraction to the reaction mixture and incubated at 400 rpm, 37° C. […]
ABSciex QTrap 5500 Source (TurboIonSpray) was operated in negative ionization mode (Source temperature 650° C., Source gas 1 and Source gas 2-65 and 40 psi respectively). PSI-352707 and IS (tolbutamide) were detected in MRM mode by transitions with m/z 410 to 150 for H027-4261 (collision energy […]) and 269/170 for tolbutamide (collision energy […]). […] Data analysis and quantitation was performed in Analyst 1.5.2 Software (AB Sciex).

[4] = physchem; conditions: simulated gi fluid
[5] = biological target: T1, HCV NS5B RNA-polymerase (Hepatitis C virus genotype 1a, UniProt P27958); conditions: versus PSI-6206, Gemcitabine and 2′-C-Methylcytidine; cited from earlier work
T1 construct: HCV NS5B RNA-polymerase

[6] = test system: HCV replicon; conditions: cited from earlier work
[7] = in the clinic; cited from earlier work
[8] = test system: xenografts models of human pancreatic cancer; conditions: in vivo; cited from earlier work

T1 sequence (P27958 2421-3011): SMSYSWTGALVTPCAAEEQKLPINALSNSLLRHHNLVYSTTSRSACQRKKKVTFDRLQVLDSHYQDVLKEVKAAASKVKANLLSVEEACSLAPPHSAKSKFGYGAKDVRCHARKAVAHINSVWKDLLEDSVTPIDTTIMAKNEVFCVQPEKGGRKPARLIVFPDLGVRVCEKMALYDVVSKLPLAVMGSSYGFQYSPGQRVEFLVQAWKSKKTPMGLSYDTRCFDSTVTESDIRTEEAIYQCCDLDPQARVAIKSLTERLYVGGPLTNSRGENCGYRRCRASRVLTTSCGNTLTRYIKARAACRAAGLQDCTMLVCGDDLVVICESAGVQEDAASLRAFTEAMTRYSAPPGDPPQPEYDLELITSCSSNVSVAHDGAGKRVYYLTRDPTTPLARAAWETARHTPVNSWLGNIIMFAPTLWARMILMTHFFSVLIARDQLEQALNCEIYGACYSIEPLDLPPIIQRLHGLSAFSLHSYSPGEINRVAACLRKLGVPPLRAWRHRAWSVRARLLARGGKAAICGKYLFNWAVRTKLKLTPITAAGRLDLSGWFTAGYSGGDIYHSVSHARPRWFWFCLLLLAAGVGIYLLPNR

For “2′-Fluoro-6′-methylene-carbocyclic adenosine phosphoramidate [5′-phosphoramidate of FMCA]”, the EC50 [1] is listed as 54 nM, the EC50 ([2]; HBV replication, wild-type) is listed as 620 nM and the “more potent than FMCA” value ([2]; against both the wild-type and resistant mutant) is listed as 10 fold.

For `C[C@@H]1N[P@@](=O)(Oc2ccccc2)OC[C@H]2O[C@@H](n3ccc(=O)[nH]c3=O)[C@](C)(F)[C@@H]2OC(=O)CCCOC1=O` [1(13)], the half-life at 1 μM [3] was greater than 12.4 h and the half-life [4] was greater than 24 h.

In the case of `CC(C)OC(=O)[C@H](C)NP(=O)(OC[C@H]1O[C@@H](n2ccc(N)nc2=O)C(F)(F)[C@@H]1O)Oc1ccccc1` (some centres unmarked) [AVI-4201], the “inhibitory activity compared with the corresponding nucleoside” value [5] is given as “by orders of magnitude higher”.

For `Nc1ccn([C@@H]2O[C@H](COP(=O)(N[C@H]3CCOC3=O)Oc3ccccc3)[C@@H](O)C2(F)F)c(=O)n1` (some centres unmarked) [AVI-4203], the “inhibitory activity compared with the corresponding nucleoside” value [5] is given as “by orders of magnitude higher”.

For `CC(C)OC(=O)[C@H](C)NP(=O)(OC[C@H]1O[C@@H](n2ccc(NO)nc2=O)[C@](C)(O)[C@@H]1O)Oc1ccccc1` (some centres unmarked) [CC-1845], the “inhibitory activity compared with the corresponding nucleoside” value [5] is given as “by orders of magnitude higher”.

In the case of `CC(C)(CO)C(=O)SCCOP(=O)(COC[C@H]1OC(n2cnc3c(=O)[nH]c(N)nc32)[C@](C)(O)[C@@H]1O)NCc1ccccc1` (some centres unmarked) [IDX-184], the EC50 [6] is listed as 400 nM.

For `COc1nc(N)nc2c1ncn2[C@@H]1O[C@H](COP(=O)(N[C@@H](C)C(=O)OCC(C)(C)C)Oc2cccc3ccccc23)[C@@H](O)[C@@]1(C)O` (some centres unmarked) [INX-08189], the cardiovascular toxicity [7] is given as “severe cardiovascular toxicity” and the EC50 [6] is given as 10 nM.

In the case of `C[C@H](NP(=O)(OC[C@H]1O[C@@H](n2ccc(N)nc2=O)C(F)(F)[C@@H]1O)Oc1ccccc1)C(=O)OCc1ccccc1` (some centres unmarked) [NUC-1031, Gemcitabin-5′-phosphoramidate], the tumor volume [8] is given as “significantly reduced tumor volume”.

For `COc1nc(N)nc2c1ncn2[C@@H]1O[C@H](COP(=O)(N[C@@H](C)C(=O)OC(C)C)Oc2ccccc2)[C@@H](O)[C@@]1(C)F` (some centres unmarked) [PSI-353661], the EC90 ([6]; replicon assay) is listed as 8 nM and the “increase in potency compared to the guanosine analogue β-D-2′-deoxy-2′-R-fluoro-2′-β-C-methylguanosine” value ([6]; replicon assay) is listed as 1000 fold.

In the case of `CC(C)OC(=O)[C@H](C)N[P@](=O)(OC[C@H]1O[C@@H](n2ccc(=O)[nH]c2=O)[C@](C)(F)[C@@H]1O)Oc1ccccc1` [Sovaldi®, sofosbuvir], the half-life at 1 μM [3] is listed as greater than 1.8 h, the half-life [4] is listed as 15 h and the “inhibitory activity compared with the corresponding nucleoside” value [5] is listed as “by orders of magnitude higher”.
